Measurements: patent US9549556B2, “Macrocyclic picolinamides as fungicides” (DOW AGROSCIENCES LLC, priority 2013, dated 2017)
Where two headings read alike, the source gives them in different places.

Assays:
Puccinia triticina = assay: Wheat brown rust (PUCCRT) disease control on wheat seedlings; type: in vivo; details: read-out: PUCCRT disease control rating (% Control); for pest or weed control at 100 ppm: high volume application; for pest or weed control at 121.5 g/ha: 121.5 g/H, low volume (track spray) application
Septoria tritici = assay: Leaf blotch of wheat (SEPTTR) disease control on wheat seedlings; type: in vivo, Mycosphaerella graminicola (anamorph Septoria tritici); details: Zymoseptoria tritici, read-out: SEPTTR disease control rating (% Control); for pest or weed control at 100 ppm: high volume application; for pest or weed control at 121.5 g/ha: 121.5 g/H, low volume (track spray) application
Experimental: Evaluation of Fungicidal Activity: Leaf Blotch of Wheat (Mycosphaerella graminicola; Anamorph: Septoria tritici; Bayer Code […]) Technical grades of materials were dissolved in acetone, which were then mixed with nine volumes of water containing 110 ppm Triton X-100. The fungicide solutions were applied onto wheat seedlings using an automated booth sprayer to run-off. All sprayed plants were allowed to air dry prior to further handling. All fungicides were evaluated using the aforementioned method for their activity vs. all target diseases. Wheat leaf blotch and brown rust activity were also evaluated using track spray applications, in which case the fungicides were formulated as EC formulations, containing 0.1% Trycol 5941 in the spray solutions. Wheat plants (variety Yuma) were grown from seed in a greenhouse in 50% mineral soil/50% soil-less Metro mix until the first leaf was fully emerged, with 7-10 seedlings per pot. These plants were inoculated with an aqueous spore suspension of Septoria tritici either prior to or after fungicide treatments. After inoculation the plants were kept in 100% relative humidity (one day in a dark dew chamber followed by two to three days in a lighted dew chamber at 20° C.) to permit spores to germinate and infect the leaf. The plants were then transferred to a greenhouse set at 20° C. for disease to develop. When disease symptoms were fully expressed on the 1st leaves of untreated plants, infection levels were assessed on a scale of 0 to 100 percent disease severity. Percent disease control was calculated using the ratio of disease severity on treated plants relative to untreated plants.

Compound: CCCC[C@H]1[C@H](C)OC(=O)[C@@H](NC(=O)c2nccc(OC)c2O)COC[C@@H]1OCc1ccccc1 [Compound 37]
- pest or weed control at 100 ppm (Puccinia triticina; 24 h, 1DP (1 Day Protectant)): > 70%
- pest or weed control at 100 ppm (Puccinia triticina; 72 h, 3DC (3 Day Curative)): > 70%
- pest or weed control at 100 ppm (Septoria tritici; 24 h, 1DP (1 Day Protectant)): > 70%
- pest or weed control at 100 ppm (Septoria tritici; 72 h, 3DC (3 Day Curative)): > 70%

Compound: COc1ccnc(C(=O)N[C@H]2COC[C@H](OCc3ccccc3)[C@@H](Cc3ccc(F)cc3)[C@H](C)OC2=O)c1O [Compound 38]
- pest or weed control at 100 ppm (Puccinia triticina; 24 h, 1DP (1 Day Protectant)): > 70%
- pest or weed control at 100 ppm (Puccinia triticina; 72 h, 3DC (3 Day Curative)): > 70%
- pest or weed control at 100 ppm (Septoria tritici; 24 h, 1DP (1 Day Protectant)): > 70%
- pest or weed control at 100 ppm (Septoria tritici; 72 h, 3DC (3 Day Curative)): > 70%

Compound: CCCC[C@H]1[C@H](C)OC(=O)[C@@H](NC(=O)c2nccc(OC)c2OCOC(C)=O)COC[C@@H]1OCc1ccccc1 [Compound 40]
- pest or weed control at 121.5 g/ha (Puccinia triticina; 24 h, 1DP (1 Day Protectant)): > 70%
- pest or weed control at 121.5 g/ha (Puccinia triticina; 72 h, 3DC (3 Day Curative)): > 70%
- pest or weed control at 121.5 g/ha (Septoria tritici; 24 h, 1DP (1 Day Protectant)): > 70%
- pest or weed control at 121.5 g/ha (Septoria tritici; 72 h, 3DC (3 Day Curative)): > 70%

Compound: CCCC[C@H]1[C@H](C)OC(=O)[C@@H](NC(=O)c2nccc(OC)c2OCOC(C)=O)COC[C@@H]1OC(=O)C(C)C [Compound 43]
- pest or weed control at 121.5 g/ha (Puccinia triticina; 24 h, 1DP (1 Day Protectant)): > 70%
- pest or weed control at 121.5 g/ha (Puccinia triticina; 72 h, 3DC (3 Day Curative)): > 70%
- pest or weed control at 121.5 g/ha (Septoria tritici; 24 h, 1DP (1 Day Protectant)): < 70%
- pest or weed control at 121.5 g/ha (Septoria tritici; 72 h, 3DC (3 Day Curative)): > 70%

Compound: CCCC[C@H]1[C@H](C)OC(=O)[C@@H](NC(=O)c2nccc(OC)c2OCOC(C)=O)COC[C@@H]1Oc1ccccc1 [Compound 44]
- pest or weed control at 121.5 g/ha (Puccinia triticina; 24 h, 1DP (1 Day Protectant)): > 70%
- pest or weed control at 121.5 g/ha (Puccinia triticina; 72 h, 3DC (3 Day Curative)): > 70%
- pest or weed control at 121.5 g/ha (Septoria tritici; 24 h, 1DP (1 Day Protectant)): > 70%
- pest or weed control at 121.5 g/ha (Septoria tritici; 72 h, 3DC (3 Day Curative)): > 70%

Compound: CCCC[C@H]1[C@H](C)OC(=O)[C@@H](NC(=O)c2nccc(OC)c2O)COC[C@@H]1Oc1ccccc1 [Compound 45]
- pest or weed control at 100 ppm (Puccinia triticina; 24 h, 1DP (1 Day Protectant)): > 70%
- pest or weed control at 100 ppm (Puccinia triticina; 72 h, 3DC (3 Day Curative)): < 70%
- pest or weed control at 100 ppm (Septoria tritici; 24 h, 1DP (1 Day Protectant)): > 70%
- pest or weed control at 100 ppm (Septoria tritici; 72 h, 3DC (3 Day Curative)): < 70%

Compound: COc1ccnc(C(=O)N[C@H]2COC[C@H](Oc3ccccc3)[C@@H](CCC(C)C)[C@H](C)OC2=O)c1OC(C)=O [Compound 47]
- pest or weed control at 121.5 g/ha (Puccinia triticina; 24 h, 1DP (1 Day Protectant)): > 70%
- pest or weed control at 121.5 g/ha (Puccinia triticina; 72 h, 3DC (3 Day Curative)): < 70%
- pest or weed control at 121.5 g/ha (Septoria tritici; 24 h, 1DP (1 Day Protectant)): > 70%
- pest or weed control at 121.5 g/ha (Septoria tritici; 72 h, 3DC (3 Day Curative)): > 70%

Compound: CCCC[C@H]1[C@H](C)OC(=O)[C@@H](NC(=O)c2nccc(OC)c2OCOC(C)=O)COC[C@@H]1OCCCC(F)(F)F [Compound 48]
- pest or weed control at 121.5 g/ha (Puccinia triticina; 24 h, 1DP (1 Day Protectant)): > 70%
- pest or weed control at 121.5 g/ha (Puccinia triticina; 72 h, 3DC (3 Day Curative)): > 70%
- pest or weed control at 121.5 g/ha (Septoria tritici; 24 h, 1DP (1 Day Protectant)): > 70%
- pest or weed control at 121.5 g/ha (Septoria tritici; 72 h, 3DC (3 Day Curative)): > 70%

Compound: CCCC[C@H]1[C@H](C)OC(=O)[C@@H](NC(=O)c2nccc(OC)c2O)COC[C@@H]1OC(=O)C(C)C [Compound 58]
- pest or weed control at 100 ppm (Puccinia triticina; 24 h, 1DP (1 Day Protectant)): > 70%
- pest or weed control at 100 ppm (Puccinia triticina; 72 h, 3DC (3 Day Curative)): < 70%
- pest or weed control at 100 ppm (Septoria tritici; 24 h, 1DP (1 Day Protectant)): < 70%
- pest or weed control at 100 ppm (Septoria tritici; 72 h, 3DC (3 Day Curative)): > 70%

Compound: COc1ccnc(C(=O)N[C@H]2COC[C@H](OC(=O)C3CC3)[C@@H](Cc3ccc(F)cc3)[C@H](C)OC2=O)c1OCOC(C)=O [Compound 59]
- pest or weed control at 121.5 g/ha (Puccinia triticina; 24 h, 1DP (1 Day Protectant)): > 70%
- pest or weed control at 121.5 g/ha (Puccinia triticina; 72 h, 3DC (3 Day Curative)): > 70%
- pest or weed control at 121.5 g/ha (Septoria tritici; 24 h, 1DP (1 Day Protectant)): > 70%
- pest or weed control at 121.5 g/ha (Septoria tritici; 72 h, 3DC (3 Day Curative)): > 70%

Compound: CCCO[C@H]1COC[C@H](NC(=O)c2nccc(OC)c2OCOC(C)=O)C(=O)O[C@@H](C)[C@@H]1Cc1ccc(F)cc1 [Compound 62]
- pest or weed control at 121.5 g/ha (Puccinia triticina; 24 h, 1DP (1 Day Protectant)): > 70%
- pest or weed control at 121.5 g/ha (Puccinia triticina; 72 h, 3DC (3 Day Curative)): > 70%
- pest or weed control at 121.5 g/ha (Septoria tritici; 24 h, 1DP (1 Day Protectant)): > 70%
- pest or weed control at 121.5 g/ha (Septoria tritici; 72 h, 3DC (3 Day Curative)): > 70%

Compound: COc1ccnc(C(=O)N[C@H]2COC[C@H](Oc3ccc(C)cc3)[C@@H](Cc3ccc(F)cc3)[C@H](C)OC2=O)c1OCOC(C)=O [Compound 64]
- pest or weed control at 121.5 g/ha (Puccinia triticina; 24 h, 1DP (1 Day Protectant)): > 70%
- pest or weed control at 121.5 g/ha (Puccinia triticina; 72 h, 3DC (3 Day Curative)): < 70%
- pest or weed control at 121.5 g/ha (Septoria tritici; 24 h, 1DP (1 Day Protectant)): > 70%
- pest or weed control at 121.5 g/ha (Septoria tritici; 72 h, 3DC (3 Day Curative)): > 70%

Compound: CCCC[C@H]1[C@H](C)OC(=O)[C@@H](NC(=O)c2nccc(OC)c2O)COC[C@@H]1OCCCC(F)(F)F [Compound 65]
- pest or weed control at 100 ppm (Puccinia triticina; 24 h, 1DP (1 Day Protectant)): > 70%
- pest or weed control at 100 ppm (Puccinia triticina; 72 h, 3DC (3 Day Curative)): < 70%
- pest or weed control at 100 ppm (Septoria tritici; 24 h, 1DP (1 Day Protectant)): > 70%
- pest or weed control at 100 ppm (Septoria tritici; 72 h, 3DC (3 Day Curative)): > 70%

Compound: COc1ccnc(C(=O)N[C@H]2COC[C@H](OC(=O)C3CC3)[C@@H](CCC(C)C)[C@H](C)OC2=O)c1OC(C)=O [Compound 68, (3S,7R,8S,9S)-3-(3-acetoxy-4-methoxypicolinamido)-8-isopentyl-9-methyl-2-oxo-1,5-dioxonan-7-yl cyclopropanecarboxylate]
- pest or weed control at 121.5 g/ha (Puccinia triticina; 24 h, 1DP (1 Day Protectant)): > 70%
- pest or weed control at 121.5 g/ha (Puccinia triticina; 72 h, 3DC (3 Day Curative)): > 70%
- pest or weed control at 121.5 g/ha (Septoria tritici; 24 h, 1DP (1 Day Protectant)): < 70%
- pest or weed control at 121.5 g/ha (Septoria tritici; 72 h, 3DC (3 Day Curative)): > 70%
